Results taken from patent EP0457910A1, “NOVEL GLUCOSAMINE DERIVATIVE AND LIPOSOME CONTAINING THE SAME AS MEMBRANE COMPONENT” (Japan Tobacco Inc., priority 1989, dated 1991).

System: 5-week-old ICR male mouse
Assay: Acute toxicity No. 1: lethal toxicity test of the compounds, intraperitoneal
Type: in vivo
Conditions: for dead individuals during the observation period / general condition after the administration / weight: i.p., mice
Source text: Novel glucosamine derivative [I] according to the present invention was used to perform a lethal toxicity test with respect to mice. The following compounds were used as to-be-tested substances. • ① 6-O-palmitoyl-D-glucosamine methylglycoside • ② 6,6'-di-O-palmitoyl-D-glucosamino-(l→4)-β-D-glucosamine methylglycoside • ③ Stearylamine (Comparative Example)
Each of the above compounds was suspended in a 0.5%-CMC·Na solution to prepare a to-be-tested solution. 1.0 mℓ of each to-be-tested solution was administered intraperitoneally to a 5-week-old ICR male mouse, and a mouse mortality state was observed. Note that 1.0 mℓ of a 0.5%-CMC·Na solution was similarly administered to a solvent control group.

**Q.** How did the “Total Number of dead individuals” value (450 ng/kg i.p.) turn out when `CCCCCCCCCCCCCCCC(=O)OC[C@H]1O[C@@H](O[C@H]2[C@H](O)[C@@H](N)C(OC)O[C@@H]2COC(=O)CCCCCCCCCCCCCCC)[C@H](N)[C@@H](O)[C@@H]1O` (stereo partly drawn) [compound ②, 6,6'-di-O-palmitoyl-D-glucosamino-(1→4)-β-D-glucosamine methylglycoside] was run?
**A.** The value was 0/1.

**Q.** What about the “Number of dead individuals” value (450 ng/kg i.p., 1st day) of the same compound?
**A.** Its value is 0/1.

**Q.** What about the “Number of dead individuals” value (450 ng/kg i.p., 2nd day) of the same compound?
**A.** Its value is 0/1.

**Q.** What about the “Number of dead individuals” value (450 ng/kg i.p., 3rd day) of the same compound?
**A.** The value was 0/1.

**Q.** What about the “Number of dead individuals” value (450 ng/kg i.p., Day of test) of the same compound?
**A.** The value was 0/1.

**Q.** And the “Total Number of dead individuals” value (900 ng/kg i.p.)?
**A.** The value was 0/1.

**Q.** What about the “Number of dead individuals” value (900 ng/kg i.p., 1st day) of the same compound?
**A.** The value was 0/1.

**Q.** What about the “Number of dead individuals” value (900 ng/kg i.p., 2nd day) of the same compound?
**A.** The value was 0/1.

**Q.** What about the “Number of dead individuals” value (900 ng/kg i.p., 3rd day) of the same compound?
**A.** Its value is 0/1.

**Q.** And the “Number of dead individuals” value (900 ng/kg i.p., Day of test)?
**A.** Its value is 0/1.

**Q.** What about the “dead individuals during the observation period” value of the same compound?
**A.** Its value is “no dead individual was found”.

**Q.** And the “general condition after the administration” value (from here on “general condition”)?
**A.** The value was “no significant change was found”.

**Q.** What about the weight of the same compound?
**A.** Its weight is “an increase in weight was found as in the control”.

**Q.** With `CCCCCCCCCCCCCCCC(=O)OC[C@H]1OC(OC)[C@H](N)[C@@H](O)[C@@H]1O` (stereo partly drawn) [compound ①, 6-O-palmitoyl-D-glucosamine methylglycoside] as the compound, how does the “Total Number of dead individuals” value (450 ng/kg i.p.) read?
**A.** Its value is 0/2.

**Q.** What about the “Number of dead individuals” value (450 ng/kg i.p., 1st day) of the same compound?
**A.** Its value is 0/2.

**Q.** And the “Number of dead individuals” value (450 ng/kg i.p., 2nd day)?
**A.** Its value is 0/2.

**Q.** What about the “Number of dead individuals” value (450 ng/kg i.p., 3rd day) of the same compound?
**A.** Its value is 0/2.

**Q.** And the “Number of dead individuals” value (450 ng/kg i.p., Day of test)?
**A.** The value was 0/2.

**Q.** What about the “Total Number of dead individuals” value (900 ng/kg i.p.) of the same compound?
**A.** The value was 0/2.

**Q.** What about the “Number of dead individuals” value (900 ng/kg i.p., 1st day) of the same compound?
**A.** The value was 0/2.

**Q.** And the “Number of dead individuals” value (900 ng/kg i.p., 2nd day)?
**A.** Its value is 0/2.

**Q.** And the “Number of dead individuals” value (900 ng/kg i.p., 3rd day)?
**A.** The value was 0/2.

**Q.** And the “Number of dead individuals” value (900 ng/kg i.p., Day of test)?
**A.** The value was 0/2.

**Q.** What about the “dead individuals during the observation period” value of the same compound?
**A.** Its value is “no dead individual was found”.

**Q.** And the “general condition” value?
**A.** The value was “no significant change was found”.

**Q.** What about the weight of the same compound?
**A.** Its weight is “an increase in weight was found as in the control”.

**Q.** `CCCCCCCCCCCCCCCCCCN` [compound ③, Stearylamine, reference compound] was tested. Which “Total Number of dead individuals” value (250 ng/kg i.p.) did it give?
**A.** The value was 1/5.

**Q.** And the “Number of dead individuals” value (250 ng/kg i.p., 1st day)?
**A.** The value was 0/5.

**Q.** What about the “Number of dead individuals” value (250 ng/kg i.p., 2nd day) of the same compound?
**A.** Its value is 0/5.

**Q.** What about the “Number of dead individuals” value (250 ng/kg i.p., 3rd day) of the same compound?
**A.** Its value is 1/5.

**Q.** And the “Number of dead individuals” value (250 ng/kg i.p., Day of test)?
**A.** The value was 0/5.

**Q.** And the “Total Number of dead individuals” value (500 ng/kg i.p.)?
**A.** The value was 3/5.

**Q.** What about the “Number of dead individuals” value (500 ng/kg i.p., 1st day) of the same compound?
**A.** The value was 0/5.

**Q.** And the “Number of dead individuals” value (500 ng/kg i.p., 2nd day)?
**A.** The value was 3/5.

**Q.** And the “Number of dead individuals” value (500 ng/kg i.p., 3rd day)?
**A.** The value was 0/2.

**Q.** What about the “Number of dead individuals” value (500 ng/kg i.p., Day of test) of the same compound?
**A.** The value was 0/5.

**Q.** What about the “Total Number of dead individuals” value (1,500 ng/kg i.p.) of the same compound?
**A.** Its value is 4/4.

**Q.** What about the “Number of dead individuals” value (1,500 ng/kg i.p., 1st day) of the same compound?
**A.** Its value is 0/4.

**Q.** What about the “Number of dead individuals” value (1,500 ng/kg i.p., 2nd day) of the same compound?
**A.** Its value is 1/4.

**Q.** What about the “Number of dead individuals” value (1,500 ng/kg i.p., 3rd day) of the same compound?
**A.** The value was 3/3.

**Q.** What about the “Number of dead individuals” value (1,500 ng/kg i.p., Day of test) of the same compound?
**A.** Its value is 0/4.

**Q.** And the “general condition” value?
**A.** Its value is “a decrease in spontaneous motion was found immediately after the administration”.

**Q.** What about the weight of the same compound?
**A.** Its weight is “the weight was gradually decreased to result in death”.
